Reference: ChEMBL document CHEMBL1201862, “PubChem BioAssay data set” (2004)
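1) Cells in 96-well plates. 2) Compound, 48 h, 5 concentrations. 3) Linear interpolation between surrounding doses. 4) Unreached endpoint = highest concentration. Here, GI50 denotes the concentration required for 50% inhibition of growth.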 Activity calls are given as the source filed them. Rule as the data show it: active = GI50 up to about 1.1 µM and inactive = higher.

Columns and labels:
Experiment in all cases: inhibition of tumour cell growth, NCI panel, 48 h
HOP-62 = system: HOP-62
NCI-H23 = system: NCI-H23
U-251 = system: U-251
Hs-578T = system: Hs-578T
NCI/ADR-RES = system: NCI/ADR-RES
NCI-H522 = system: NCI-H522
HCT-15 = system: HCT-15
UACC-62 = system: UACC-62
SF-539 = system: SF-539
SK-MEL-2 = system: SK-MEL-2
HCT-116 = system: HCT-116
HCC 2998 = system: HCC 2998
M14 = system: M14
HT-29 = system: HT-29
OVCAR-3 = system: OVCAR-3
SW-620 = system: SW-620
SK-MEL-5 = system: SK-MEL-5
Malme-3M = system: Malme-3M
SK-MEL-28 = system: SK-MEL-28
A498 = system: A498

SMILES | GI50 (HOP-62) | GI50 (NCI-H23) | GI50 (U-251) | GI50 (Hs-578T) | GI50 (NCI/ADR-RES) | GI50 (NCI-H522) | GI50 (HCT-15) | GI50 (UACC-62) | GI50 (SF-539) | GI50 (SK-MEL-2) | GI50 (HCT-116) | GI50 (HCC 2998) | GI50 (M14) | GI50 (HT-29) | GI50 (OVCAR-3) | GI50 (SW-620) | GI50 (SK-MEL-5) | GI50 (Malme-3M) | GI50 (SK-MEL-28) | GI50 (A498)
COc1c(C)c(C/C=C(\C)CC/C=C(\C)CCC=C(C)C)c(OC)c(OC)c1OC | > 100 µM (inactive) | > 100 µM (inactive) | > 100 µM (inactive) | > 100 µM (inactive) | > 100 µM (inactive) | 41.3 µM (inactive) | > 100 µM | > 100 µM (inactive) | > 100 µM (inactive) | > 100 µM (inactive) | > 100 µM (inactive) | 54.6 µM (inactive) | > 100 µM (inactive) | 76.2 µM (inactive) | > 100 µM (inactive) | > 100 µM (inactive) | 74.5 µM (inactive) |  |  | 
CC(C(=O)NCNC(=O)c1ccccc1)C(=O)Nc1ccccc1 (stereo unspecified) |  | > 100 µM (inactive) | > 100 µM (inactive) | > 100 µM (inactive) | > 100 µM (inactive) | > 100 µM (inactive) | > 100 µM | > 100 µM (inactive) | > 100 µM (inactive) | > 100 µM (inactive) | > 100 µM (inactive) |  | > 100 µM (inactive) | > 100 µM (inactive) |  | > 100 µM (inactive) | > 100 µM (inactive) | > 100 µM (inactive) |  | 
C[C@]12Cc3cnn(-c4ccc(F)cc4)c3NC1CC[C@@H]1C2CC[C@@]2(C)C1CC[C@@H]2O (stereo partly specified) | 9.75 µM (inactive) | 2.85 µM (inactive) | 5.15 µM (inactive) | 3.1 µM (inactive) |  | 12.2 µM (inactive) |  | 11 µM (inactive) | 1.55 µM (inactive) |  | 3.94 µM (inactive) | 5.41 µM (inactive) | 11.1 µM (inactive) | 1.83 µM (inactive) | 12.4 µM (inactive) | 3.83 µM (inactive) | 2.65 µM (inactive) | 11.5 µM (inactive) | 14.1 µM (inactive) | 8.83 µM (inactive)
CCOC(=O)/C(=C\NC(N)=S)C(=O)c1ccccc1 | > 100 µM (inactive) | > 100 µM (inactive) | > 100 µM (inactive) |  | > 100 µM (inactive) |  | > 100 µM | > 100 µM (inactive) | > 100 µM (inactive) | > 100 µM (inactive) | > 100 µM (inactive) | > 100 µM (inactive) | > 100 µM (inactive) | > 100 µM (inactive) | > 100 µM (inactive) | > 100 µM (inactive) | > 100 µM (inactive) |  | > 100 µM (inactive) | > 100 µM (inactive)
C[C@@H](CO)C1=CC(C#C[Si](C)(C)C)N(C(=O)Oc2ccccc2)c2ccccc21 (stereo partly specified) | 15 µM (inactive) | 6.75 µM (inactive) | 18.3 µM (inactive) | 25.1 µM (inactive) | 11.8 µM (inactive) | 16.8 µM (inactive) | 6.37 µM | 9.1 µM (inactive) | 17.8 µM (inactive) | 16.9 µM (inactive) | 15.3 µM (inactive) | 15.2 µM (inactive) | 16.3 µM (inactive) | 16 µM (inactive) | 13.2 µM (inactive) | 24 µM (inactive) | 16 µM (inactive) |  | 18.2 µM (inactive) | 
C=C(C)[C@@H]1CC[C@]2(CO)CC[C@]3(C)[C@H](CC[C@@H]4[C@@]5(C)CC[C@H](O)C(C)(C)[C@@H]5CC[C@]43C)[C@@H]12 [BETULIN] | 16.7 µM (inactive) | 94.8 µM (inactive) | 11.8 µM (inactive) |  | 30.4 µM (inactive) | 20.4 µM (inactive) | 42.6 µM |  | 11.7 µM (inactive) |  | 30.8 µM (inactive) |  | 51.1 µM (inactive) | 20.6 µM (inactive) | 28.2 µM (inactive) | 20.1 µM (inactive) | 19.7 µM (inactive) | 52.5 µM (inactive) | 33.1 µM (inactive) | 21.5 µM (inactive)
COc1cc(/C=C2\CCC(C)/C(=C\c3cc(OC)c(OC)c(OC)c3)C2=O)cc(OC)c1OC (stereo unspecified) | 3.63 µM (inactive) |  | 4.97 µM (inactive) | 8.81 µM (inactive) |  |  | 1.99 µM | 1.82 µM (inactive) |  | 1.67 µM (inactive) | 3.32 µM (inactive) |  | 1.96 µM (inactive) | 3.21 µM (inactive) |  | 3.8 µM (inactive) | 2.21 µM (inactive) |  | 4.35 µM (inactive) | 1.76 µM (inactive)
COc1ccc(/C=C2\CCc3cc(OC)c(OC)cc3C2=O)cc1 | > 10 µM (inactive) | > 10 µM (inactive) | > 10 µM (inactive) | > 10 µM (inactive) | > 10 µM (inactive) |  | > 10 µM | > 10 µM (inactive) | > 10 µM (inactive) | > 10 µM (inactive) | > 10 µM (inactive) | > 10 µM (inactive) | > 10 µM (inactive) | > 10 µM (inactive) | > 10 µM (inactive) | > 10 µM (inactive) | > 10 µM (inactive) | > 10 µM (inactive) | > 10 µM (inactive) | 
COc1ccc2c(c1)-c1[nH]c3ccccc3c1CC2 | 16.8 µM (inactive) | 13.6 µM (inactive) | 16.6 µM (inactive) | 15.4 µM (inactive) | 11.9 µM (inactive) | 6.31 µM (inactive) | 14.7 µM | 15.6 µM (inactive) | 17.4 µM (inactive) | 15.5 µM (inactive) | 16.9 µM (inactive) | 10.2 µM (inactive) | 17.4 µM (inactive) | 11 µM (inactive) | 18.2 µM (inactive) | 16.8 µM (inactive) | 13.2 µM (inactive) | 12.4 µM (inactive) | 16.8 µM (inactive) | 
O=C(OC1CCC2OOC1O2)c1ccc([N+](=O)[O-])cc1 (stereo unspecified) | > 100 µM (inactive) | > 100 µM (inactive) | > 100 µM (inactive) |  |  | > 100 µM (inactive) | > 100 µM | > 100 µM (inactive) | > 100 µM (inactive) | > 100 µM (inactive) | > 100 µM (inactive) | > 100 µM (inactive) | > 100 µM (inactive) | > 100 µM (inactive) | > 100 µM (inactive) | > 100 µM (inactive) | > 100 µM (inactive) | > 100 µM (inactive) | > 100 µM (inactive) | > 100 µM (inactive)
CNC(=O)ON(C(C)=O)C(=O)NC [CARACEMIDE] | 140 µM (inactive) | 41.8 µM (inactive) | 82.8 µM (inactive) |  | 67.1 µM (inactive) | 21.5 µM (inactive) | 31 µM | 47.6 µM (inactive) | 64.4 µM (inactive) | 26 µM (inactive) | 45 µM (inactive) | > 100 µM (inactive) | 9.55 µM (inactive) |  | 54.1 µM (inactive) | 52 µM (inactive) | 40.3 µM (inactive) | 44.1 µM (inactive) | 69.5 µM (inactive) | 87.7 µM (inactive)
C=CCCC1(CCP(=O)(c2ccccc2)c2ccccc2)OCCO1 | > 100 µM (inactive) | > 100 µM (inactive) | > 100 µM (inactive) | > 100 µM (inactive) | > 100 µM (inactive) | 64.3 µM (inactive) | > 100 µM | > 100 µM (inactive) | > 100 µM (inactive) | > 100 µM (inactive) | > 100 µM (inactive) | > 100 µM (inactive) | > 100 µM (inactive) | > 100 µM (inactive) | > 100 µM (inactive) | > 100 µM (inactive) | > 100 µM (inactive) | > 100 µM (inactive) | > 100 µM (inactive) | 
C#CCCCCC#Cc1ccccc1C(=O)C=[N+]=[N-] | > 100 µM (inactive) | > 100 µM (inactive) | > 100 µM (inactive) | > 100 µM (inactive) |  | > 100 µM (inactive) | > 100 µM | > 100 µM (inactive) | > 100 µM (inactive) | > 100 µM (inactive) | > 100 µM (inactive) | > 100 µM (inactive) | > 100 µM (inactive) | > 100 µM (inactive) |  | > 100 µM (inactive) | > 100 µM (inactive) |  | > 100 µM (inactive) | > 100 µM (inactive)
C=C(C(=O)OC)[C@H]1CC/C(C)=C/CC/C(C)=C/CC[C@@]2(C)O[C@@H]2C1 | 20.7 µM (inactive) | 19.3 µM (inactive) | 20.1 µM (inactive) |  | 16.4 µM (inactive) | 18.2 µM (inactive) | 16.3 µM | 11.9 µM (inactive) | 17.9 µM (inactive) | 15.3 µM (inactive) | 15.4 µM (inactive) | 16 µM (inactive) | 21.9 µM (inactive) | 17.3 µM (inactive) | 17.7 µM (inactive) | 18.5 µM (inactive) | 10.3 µM (inactive) | 25.1 µM (inactive) | 34.6 µM (inactive) | 22.1 µM (inactive)
Cc1ccc(/C=C2\CCCCCC2=O)cc1 | > 100 µM (inactive) | > 100 µM (inactive) | > 100 µM (inactive) | > 100 µM (inactive) |  | > 100 µM (inactive) | > 100 µM | > 100 µM (inactive) |  | > 100 µM (inactive) | > 100 µM (inactive) | > 100 µM (inactive) | > 100 µM (inactive) | > 100 µM (inactive) | > 100 µM (inactive) | > 100 µM (inactive) | > 100 µM (inactive) | > 100 µM (inactive) | > 100 µM (inactive) | > 100 µM (inactive)
N=C(N)NCC[C@H](NC(=O)OCCCCCn1ccc(=O)[nH]c1=O)C(=O)O | > 100 µM (inactive) | > 100 µM (inactive) | > 100 µM (inactive) | > 100 µM (inactive) | > 100 µM (inactive) |  | > 100 µM | > 100 µM (inactive) | > 100 µM (inactive) | > 100 µM (inactive) | > 100 µM (inactive) | > 100 µM (inactive) |  | > 100 µM (inactive) | > 100 µM (inactive) | > 100 µM (inactive) | > 100 µM (inactive) | > 100 µM (inactive) | > 100 µM (inactive) | 
